# Measurements as given in US20080227763A1, “Topical hormonal composition with systemic action” (LABORATOIRE THERAMEX, priority 1998, published 2008).
# Where two headings read alike, the source gives them in different places.
# What was measured:
# [1] = Solubility of nomegestrol acetate in solvent mixtures; assay type: physicochemical; conditions: ethanol/water/propyleneglycol ternary mixture, aqueous with cosolvent or surfactant or cyclodextrin, read-out: Solubilities
# Method: The effect of a ternary mixture of solvents, ethanol/water (45:55)/propyleneglycol on the solubility of nomegestrol acetate was determined.
# We also examined the possibility of lowering the proportion of alcohol in the solvent, by means of this ternary mixture, while maintaining similar solubility; for this we choose the influence of propyleneglycol on solubility in ethanol/water systems (40:60 and 30:70).
# [2] = Clinical example No. 1: plasma nomegestrol acetate after gel applied daily to both breasts; assay type: in vivo, women
# Method: In these examples, clinical trials were carried out on women, with the gel containing 0.11% of nomegestrol acetate, whose formulation is given in Table 1 of example I.
# Twenty-four volunteers, women in good health and in the period of ovarian activity, with average age of 23.5 years, were treated on 15 consecutive days with 4 mg of nomegestrol acetate in a gel applied every day to both breasts.
# Repeated blood samples were taken in the hours following the first and last administration, on 9 occasions (6 times before application of the gel and 3 times 3 hours afterwards), between the 2nd and the 14th day of treatment. The plasma of these samples was analysed for nomegestrol acetate by liquid chromatography combined with mass spectrometry.
# breast pain = assay: Clinical example No. 3: breast pain in premenopausal women treated with gel on both breasts; assay type: in vivo; conditions: 55 women, 4 mg/day as gel on both breasts
# Method: In these examples, clinical trials were carried out on women, with the gel containing 0.11% of nomegestrol acetate, whose formulation is given in Table 1 of example I. […], who had been suffering from breast pains for more than 3 months and for at least 7 days per cycle, were treated for an average time of 130 days with 4 mg of nomegestrol acetate applied each day, on the last 15 days of the menstrual cycle, in the form of a gel on both breasts. Efficacy was assessed after 3 months and at the end of treatment using a visual analogue scale for quantifying breast pain.
# [3] = Solubility of nomegestrol acetate in solvent mixtures; assay type: physicochemical
# [4] = after the last administration (15 consecutive days)
# [5] = first day of treatment, 4 mg nomegestrol acetate in 0.11% gel on both breasts
smiles,measurement,setting,value
CC(=O)O[C@]1(C(C)=O)CC[C@H]2[C@@H]3C=C(C)C4=CC(=O)CC[C@@H]4[C@H]3CC[C@@]21C [nomegestrol acetate],solubility,"[1]; System I (Ethanol 95° 30%/Demineralized water 70%), 2% propyleneglycol",600 µg/mL
same,solubility,"[1]; System II (Ethanol 95° 40%/Demineralized water 60%), 2% propyleneglycol",2600 µg/mL
same,solubility,"[1]; System II (Ethanol 95° 40%/Demineralized water 60%), 6% propyleneglycol",3000 µg/mL
same,solubility,"[1]; System II (Ethanol 95° 40%/Demineralized water 60%), 12% propyleneglycol",3400 µg/mL
same,solubility,"[1]; System III (Ethanol 95° 45%/Demineralized water 55%), 8% propyleneglycol",7700 µg/mL
same,solubility,"[1]; System III (Ethanol 95° 45%/Demineralized water 55%), 12% propyleneglycol",7700 µg/mL
same,area under the curve from 0 to 48 hours,[2]; [4],18.43±2.091 ng/ml per h
same,maximum concentration (plasma),[2]; [4],0.65 ± 0.073 ng/mL
same,state of equilibrium obtained,[2]; daily application,after the 3rd day of treatment
same,concentration at 72 h,"[2]; female, human, plasma, topical, 4 mg, 72 hours after the last application, read-out: plasma level",0.19 ± 0.027 ng/mL
same,area under the curve from 0 to 48 hours,[2]; [5],6.08±0.775 ng/ml per h
same,maximum concentration (plasma),[2]; [5],0.25 ± 0.027 ng/mL
same,nomegestrol acetate in the blood (m±sd),breast pain,0.44 ± 0.30 ng/mL
same,solubility,"[3]; 95° ethanol/water binary mixture, aqueous with cosolvent or surfactant or cyclodextrin, 95° ethanol/water binary mixture, 10% 95° ethanol, read-out: Solubility of nomegestrol acetate",70 µg/mL
same,solubility,"[3]; 95° ethanol/water binary mixture, aqueous with cosolvent or surfactant or cyclodextrin, 95° ethanol/water binary mixture, 20% 95° ethanol, read-out: Solubility of nomegestrol acetate",113 µg/mL
same,solubility,"[3]; 95° ethanol/water binary mixture, aqueous with cosolvent or surfactant or cyclodextrin, 95° ethanol/water binary mixture, 30% 95° ethanol, read-out: Solubility of nomegestrol acetate",683 µg/mL
same,solubility,"[3]; 95° ethanol/water binary mixture, aqueous with cosolvent or surfactant or cyclodextrin, 95° ethanol/water binary mixture, 40% 95° ethanol, read-out: Solubility of nomegestrol acetate",2820 µg/mL
same,solubility,"[3]; 95° ethanol/water binary mixture, aqueous with cosolvent or surfactant or cyclodextrin, 95° ethanol/water binary mixture, 50% 95° ethanol, read-out: Solubility of nomegestrol acetate",7330 µg/mL
same,solubility,"[3]; 95° ethanol/water binary mixture, aqueous with cosolvent or surfactant or cyclodextrin, 95° ethanol/water binary mixture, 60% 95° ethanol, read-out: Solubility of nomegestrol acetate",17800 µg/mL
same,solubility,"[3]; 95° ethanol/water binary mixture, aqueous with cosolvent or surfactant or cyclodextrin, 95° ethanol/water binary mixture, 70% 95° ethanol, read-out: Solubility of nomegestrol acetate",24800 µg/mL
same,solubility,"[3]; 95° ethanol/water binary mixture, aqueous with cosolvent or surfactant or cyclodextrin, 95° ethanol/water binary mixture, 80% 95° ethanol, read-out: Solubility of nomegestrol acetate",29500 µg/mL
same,solubility,"[3]; 95° ethanol/water binary mixture, aqueous with cosolvent or surfactant or cyclodextrin, 95° ethanol/water binary mixture, 90% 95° ethanol, read-out: Solubility of nomegestrol acetate",26600 µg/mL
same,solubility,"[3]; 95° ethanol/water binary mixture, organic solvent or mixture, 95° ethanol/water binary mixture, 100% 95° ethanol, read-out: Solubility of nomegestrol acetate",32800 µg/mL
same,solubility,"[3]; 95° ethanol/water binary mixture, water, 95° ethanol/water binary mixture, 0% 95° ethanol, read-out: Solubility of nomegestrol acetate",56 µg/mL
same,solubility,"[3]; aqueous-alcoholic solvent mixture, aqueous with cosolvent or surfactant or cyclodextrin, aqueous-alcoholic mixture, 0% propyleneglycol, 3% Solketal, read-out: Solubility of nomegestrol acetate",6700 µg/mL
same,solubility,"[3]; aqueous-alcoholic solvent mixture, aqueous with cosolvent or surfactant or cyclodextrin, aqueous-alcoholic mixture, 0% propyleneglycol, 3% Vitamin E TPGS, read-out: Solubility of nomegestrol acetate",7650 µg/mL
same,solubility,"[3]; aqueous-alcoholic solvent mixture, aqueous with cosolvent or surfactant or cyclodextrin, aqueous-alcoholic mixture, 0% propyleneglycol, 8% Solketal, read-out: Solubility of nomegestrol acetate",8600 µg/mL
same,solubility,"[3]; aqueous-alcoholic solvent mixture, aqueous with cosolvent or surfactant or cyclodextrin, aqueous-alcoholic mixture, 0% propyleneglycol, 8% Transcutol®, read-out: Solubility of nomegestrol acetate",10700 µg/mL
same,solubility,"[3]; aqueous-alcoholic solvent mixture, aqueous with cosolvent or surfactant or cyclodextrin, aqueous-alcoholic mixture, 0% propyleneglycol, 8% Vitamin E TPGS, read-out: Solubility of nomegestrol acetate",11100 µg/mL
same,solubility,"[3]; aqueous-alcoholic solvent mixture, aqueous with cosolvent or surfactant or cyclodextrin, aqueous-alcoholic mixture, 3% propyleneglycol, 8% Transcutol®, read-out: Solubility of nomegestrol acetate",10600 µg/mL
same,solubility,"[3]; aqueous-alcoholic solvent mixture, aqueous with cosolvent or surfactant or cyclodextrin, aqueous-alcoholic mixture, 8% propyleneglycol, 0% Solketal, read-out: Solubility of nomegestrol acetate",7700 µg/mL
same,solubility,"[3]; aqueous-alcoholic solvent mixture, aqueous with cosolvent or surfactant or cyclodextrin, aqueous-alcoholic mixture, 8% propyleneglycol, 0% Transcutol®, read-out: Solubility of nomegestrol acetate",7700 µg/mL
same,solubility,"[3]; aqueous-alcoholic solvent mixture, aqueous with cosolvent or surfactant or cyclodextrin, aqueous-alcoholic mixture, 8% propyleneglycol, 0% Vitamin E TPGS, read-out: Solubility of nomegestrol acetate",7700 µg/mL
same,solubility,"[3]; aqueous-alcoholic solvent mixture, aqueous with cosolvent or surfactant or cyclodextrin, aqueous-alcoholic mixture, 8% propyleneglycol, 3% Solketal, read-out: Solubility of nomegestrol acetate",10700 µg/mL
same,solubility,"[3]; aqueous-alcoholic solvent mixture, aqueous with cosolvent or surfactant or cyclodextrin, aqueous-alcoholic mixture, 8% propyleneglycol, 3% Transcutol®, read-out: Solubility of nomegestrol acetate",7950 µg/mL
same,solubility,"[3]; aqueous-alcoholic solvent mixture, aqueous with cosolvent or surfactant or cyclodextrin, aqueous-alcoholic mixture, 8% propyleneglycol, 3% Vitamin E TPGS, read-out: Solubility of nomegestrol acetate",12500 µg/mL
same,solubility,"[3]; ethanol/water/Labrasol solvent mixture with propyleneglycol, aqueous with cosolvent or surfactant or cyclodextrin, System Ethanol 95° 45%/Water 50%/Labrasol® 5%, 10% propyleneglycol, read-out: Solubility of l'nomegestrol acetate",9500 µg/mL
same,solubility,"[3]; ethanol/water/Labrasol solvent mixture with propyleneglycol, aqueous with cosolvent or surfactant or cyclodextrin, System Ethanol 95° 45%/Water 50%/Labrasol® 5%, 15% propyleneglycol, read-out: Solubility of l'nomegestrol acetate",10200 µg/mL
same,solubility,"[3]; ethanol/water/Labrasol solvent mixture, aqueous with cosolvent or surfactant or cyclodextrin, System Ethanol 95° 45%/Water 50%/Labrasol® 5%, 0% propyleneglycol, read-out: Solubility of l'nomegestrol acetate",9400 µg/mL
same,solubility,"[3]; ethanol/water/propyleneglycol solvent mixture, aqueous with cosolvent or surfactant or cyclodextrin, System III (Ethanol 95° 45%/Demineralized water 55%), 2% propyleneglycol, read-out: Solubilities",5100 µg/mL
same,solubility,"[3]; ethanol/water/propyleneglycol ternary mixture, aqueous with cosolvent or surfactant or cyclodextrin, System I (Ethanol 95° 30%/Demineralized water 70%), 0% propyleneglycol, read-out: Solubilities",600 µg/mL
same,solubility,"[3]; ethanol/water/propyleneglycol ternary mixture, aqueous with cosolvent or surfactant or cyclodextrin, System I (Ethanol 95° 30%/Demineralized water 70%), 4% propyleneglycol, read-out: Solubilities",500 µg/mL
same,solubility,"[3]; ethanol/water/propyleneglycol ternary mixture, aqueous with cosolvent or surfactant or cyclodextrin, System I (Ethanol 95° 30%/Demineralized water 70%), 6% propyleneglycol, read-out: Solubilities",700 µg/mL
same,solubility,"[3]; ethanol/water/propyleneglycol ternary mixture, aqueous with cosolvent or surfactant or cyclodextrin, System I (Ethanol 95° 30%/Demineralized water 70%), 8% propyleneglycol, read-out: Solubilities",1000 µg/mL
same,solubility,"[3]; ethanol/water/propyleneglycol ternary mixture, aqueous with cosolvent or surfactant or cyclodextrin, System I (Ethanol 95° 30%/Demineralized water 70%), 12% propyleneglycol, read-out: Solubilities",1100 µg/mL
same,solubility,"[3]; ethanol/water/propyleneglycol ternary mixture, aqueous with cosolvent or surfactant or cyclodextrin, System I (Ethanol 95° 30%/Demineralized water 70%), 20% propyleneglycol, read-out: Solubilities",1500 µg/mL
same,solubility,"[3]; ethanol/water/propyleneglycol ternary mixture, aqueous with cosolvent or surfactant or cyclodextrin, System II (Ethanol 95° 40%/Demineralized water 60%), 0% propyleneglycol, read-out: Solubilities",2900 µg/mL
same,solubility,"[3]; ethanol/water/propyleneglycol ternary mixture, aqueous with cosolvent or surfactant or cyclodextrin, System II (Ethanol 95° 40%/Demineralized water 60%), 4% propyleneglycol, read-out: Solubilities",2600 µg/mL
same,solubility,"[3]; ethanol/water/propyleneglycol ternary mixture, aqueous with cosolvent or surfactant or cyclodextrin, System II (Ethanol 95° 40%/Demineralized water 60%), 8% propyleneglycol, read-out: Solubilities",3200 µg/mL
same,solubility,"[3]; ethanol/water/propyleneglycol ternary mixture, aqueous with cosolvent or surfactant or cyclodextrin, System II (Ethanol 95° 40%/Demineralized water 60%), 20% propyleneglycol, read-out: Solubilities",3900 µg/mL
same,solubility,"[3]; ethanol/water/propyleneglycol ternary mixture, aqueous with cosolvent or surfactant or cyclodextrin, System III (Ethanol 95° 45%/Demineralized water 55%), 0% propyleneglycol, read-out: Solubilities",5100 µg/mL
same,solubility,"[3]; ethanol/water/propyleneglycol ternary mixture, aqueous with cosolvent or surfactant or cyclodextrin, System III (Ethanol 95° 45%/Demineralized water 55%), 4% propyleneglycol, read-out: Solubilities",5100 µg/mL
same,solubility,"[3]; ethanol/water/propyleneglycol ternary mixture, aqueous with cosolvent or surfactant or cyclodextrin, System III (Ethanol 95° 45%/Demineralized water 55%), 6% propyleneglycol, read-out: Solubilities",5100 µg/mL
same,solubility,"[3]; ethanol/water/propyleneglycol ternary mixture, aqueous with cosolvent or surfactant or cyclodextrin, System III (Ethanol 95° 45%/Demineralized water 55%), 20% propyleneglycol, read-out: Solubilities",7900 µg/mL
